Results reported in patent US11572590B2, “Methods for evaluating tumor cell spheroids using 3D microfluidic cell culture device” (Dana-Farber Cancer Institute, Inc., priority 2017, dated 2023).
Where two headings read alike, the source gives them in different places.

Experiments:
Assay in all cases: SelectScreen Kinase Profiling, single point inhibition and IC50 for off-target kinases
Type in all cases: biochemical
[1] = target: T1, off-target kinases (Homo sapiens, UniProt O00141); details: SGK (SGK1), ZLYTE, ATP Km app
T1 sequence (O00141 1-431): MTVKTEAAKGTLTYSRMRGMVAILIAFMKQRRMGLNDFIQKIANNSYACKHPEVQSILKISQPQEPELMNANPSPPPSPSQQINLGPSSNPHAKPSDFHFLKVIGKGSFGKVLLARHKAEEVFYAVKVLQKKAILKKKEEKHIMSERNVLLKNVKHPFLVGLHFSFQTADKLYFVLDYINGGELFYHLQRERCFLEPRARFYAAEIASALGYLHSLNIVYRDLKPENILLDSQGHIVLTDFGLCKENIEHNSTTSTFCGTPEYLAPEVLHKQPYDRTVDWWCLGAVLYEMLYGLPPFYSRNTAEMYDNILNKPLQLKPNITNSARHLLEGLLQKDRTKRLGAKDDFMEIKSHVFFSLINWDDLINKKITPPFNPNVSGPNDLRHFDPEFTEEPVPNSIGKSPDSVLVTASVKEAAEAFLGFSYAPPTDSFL

[2] = target: off-target kinases (Homo sapiens, UniProt O43293); details: DAPK3 (ZIPK), ATP Km app, ZLYTE
[3] = target: off-target kinases (Homo sapiens, UniProt P16234, D842V); details: PDGFRA D842V, ATP Km app, ZLYTE
[4] = target: T2, off-target kinases (Homo sapiens, UniProt Q13043)
T2 sequence (Q13043 1-487): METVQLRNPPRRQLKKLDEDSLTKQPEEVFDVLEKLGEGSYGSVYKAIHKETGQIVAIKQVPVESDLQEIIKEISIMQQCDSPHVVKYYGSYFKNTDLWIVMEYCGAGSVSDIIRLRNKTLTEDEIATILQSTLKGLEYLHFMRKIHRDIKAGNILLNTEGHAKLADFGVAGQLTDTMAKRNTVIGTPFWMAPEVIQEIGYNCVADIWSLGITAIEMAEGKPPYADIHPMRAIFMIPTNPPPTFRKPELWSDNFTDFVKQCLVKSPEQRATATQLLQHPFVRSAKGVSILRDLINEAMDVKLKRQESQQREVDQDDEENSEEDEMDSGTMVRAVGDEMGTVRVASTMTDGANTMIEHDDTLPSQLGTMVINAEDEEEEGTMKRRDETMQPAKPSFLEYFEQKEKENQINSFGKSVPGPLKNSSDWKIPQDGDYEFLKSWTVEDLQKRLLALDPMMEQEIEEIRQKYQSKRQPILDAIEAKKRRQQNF

[5] = target: off-target kinases (Homo sapiens, UniProt Q13131)
[6] = target: off-target kinases (Homo sapiens, UniProt Q14680); details: MELK, ZLYTE, ATP Km app
[7] = target: off-target kinases (Homo sapiens, UniProt Q92918); details: MAP4K1 (HPK1), LanthaScreen Binding
[8] = target: off-target kinases (Homo sapiens, UniProt Q9NYA1); details: SPHK1, Adapta, ATP Km app
Sequence of off-target kinases (Homo sapiens, UniProt Q9NYA1) (Q9NYA1 whole entry): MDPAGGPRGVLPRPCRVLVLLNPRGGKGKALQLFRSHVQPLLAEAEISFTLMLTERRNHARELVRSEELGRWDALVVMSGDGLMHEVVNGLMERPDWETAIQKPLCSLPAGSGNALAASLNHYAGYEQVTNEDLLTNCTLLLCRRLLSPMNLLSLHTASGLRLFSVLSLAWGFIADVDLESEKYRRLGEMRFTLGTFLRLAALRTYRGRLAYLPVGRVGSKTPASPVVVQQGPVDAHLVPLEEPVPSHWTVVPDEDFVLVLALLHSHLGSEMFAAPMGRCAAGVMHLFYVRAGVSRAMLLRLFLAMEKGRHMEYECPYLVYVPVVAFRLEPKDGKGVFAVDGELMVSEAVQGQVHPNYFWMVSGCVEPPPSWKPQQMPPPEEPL

Sequence of off-target kinases (Homo sapiens, UniProt Q13131) (Q13131 whole entry): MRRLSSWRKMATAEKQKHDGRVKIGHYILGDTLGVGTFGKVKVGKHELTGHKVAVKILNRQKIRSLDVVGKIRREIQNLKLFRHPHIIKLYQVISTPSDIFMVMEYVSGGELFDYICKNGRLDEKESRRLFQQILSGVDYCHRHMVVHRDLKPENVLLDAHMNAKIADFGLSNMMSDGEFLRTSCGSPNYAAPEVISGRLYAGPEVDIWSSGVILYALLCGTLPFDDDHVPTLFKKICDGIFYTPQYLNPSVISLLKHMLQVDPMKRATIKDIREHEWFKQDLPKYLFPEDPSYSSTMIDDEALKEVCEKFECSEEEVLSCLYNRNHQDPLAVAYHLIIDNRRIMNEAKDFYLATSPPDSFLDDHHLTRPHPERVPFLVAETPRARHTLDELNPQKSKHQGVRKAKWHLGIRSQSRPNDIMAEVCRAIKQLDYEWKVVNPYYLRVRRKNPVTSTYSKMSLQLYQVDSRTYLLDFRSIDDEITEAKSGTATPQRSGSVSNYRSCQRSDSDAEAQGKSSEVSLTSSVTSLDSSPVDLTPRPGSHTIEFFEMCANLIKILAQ
Sequence of off-target kinases (Homo sapiens, UniProt Q14680) (Q14680 whole entry): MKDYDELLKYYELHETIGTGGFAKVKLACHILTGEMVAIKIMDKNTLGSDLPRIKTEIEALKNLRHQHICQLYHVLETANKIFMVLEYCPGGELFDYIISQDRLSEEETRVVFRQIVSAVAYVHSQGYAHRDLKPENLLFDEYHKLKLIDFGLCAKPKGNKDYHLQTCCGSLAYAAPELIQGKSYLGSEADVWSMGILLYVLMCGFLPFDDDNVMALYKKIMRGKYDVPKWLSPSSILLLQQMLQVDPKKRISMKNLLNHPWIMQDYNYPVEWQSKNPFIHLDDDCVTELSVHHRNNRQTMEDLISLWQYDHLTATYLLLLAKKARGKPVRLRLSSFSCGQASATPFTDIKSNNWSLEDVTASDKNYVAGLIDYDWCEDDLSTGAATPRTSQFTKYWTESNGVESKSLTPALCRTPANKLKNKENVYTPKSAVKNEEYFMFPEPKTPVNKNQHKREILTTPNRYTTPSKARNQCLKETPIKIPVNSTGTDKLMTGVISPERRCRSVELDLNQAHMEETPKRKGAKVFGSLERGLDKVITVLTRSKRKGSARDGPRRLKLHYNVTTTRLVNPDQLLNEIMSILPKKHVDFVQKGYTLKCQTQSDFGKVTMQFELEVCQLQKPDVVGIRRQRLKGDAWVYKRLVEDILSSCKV
Sequence of off-target kinases (Homo sapiens, UniProt P16234, D842V) (P16234 24-1089 D842V): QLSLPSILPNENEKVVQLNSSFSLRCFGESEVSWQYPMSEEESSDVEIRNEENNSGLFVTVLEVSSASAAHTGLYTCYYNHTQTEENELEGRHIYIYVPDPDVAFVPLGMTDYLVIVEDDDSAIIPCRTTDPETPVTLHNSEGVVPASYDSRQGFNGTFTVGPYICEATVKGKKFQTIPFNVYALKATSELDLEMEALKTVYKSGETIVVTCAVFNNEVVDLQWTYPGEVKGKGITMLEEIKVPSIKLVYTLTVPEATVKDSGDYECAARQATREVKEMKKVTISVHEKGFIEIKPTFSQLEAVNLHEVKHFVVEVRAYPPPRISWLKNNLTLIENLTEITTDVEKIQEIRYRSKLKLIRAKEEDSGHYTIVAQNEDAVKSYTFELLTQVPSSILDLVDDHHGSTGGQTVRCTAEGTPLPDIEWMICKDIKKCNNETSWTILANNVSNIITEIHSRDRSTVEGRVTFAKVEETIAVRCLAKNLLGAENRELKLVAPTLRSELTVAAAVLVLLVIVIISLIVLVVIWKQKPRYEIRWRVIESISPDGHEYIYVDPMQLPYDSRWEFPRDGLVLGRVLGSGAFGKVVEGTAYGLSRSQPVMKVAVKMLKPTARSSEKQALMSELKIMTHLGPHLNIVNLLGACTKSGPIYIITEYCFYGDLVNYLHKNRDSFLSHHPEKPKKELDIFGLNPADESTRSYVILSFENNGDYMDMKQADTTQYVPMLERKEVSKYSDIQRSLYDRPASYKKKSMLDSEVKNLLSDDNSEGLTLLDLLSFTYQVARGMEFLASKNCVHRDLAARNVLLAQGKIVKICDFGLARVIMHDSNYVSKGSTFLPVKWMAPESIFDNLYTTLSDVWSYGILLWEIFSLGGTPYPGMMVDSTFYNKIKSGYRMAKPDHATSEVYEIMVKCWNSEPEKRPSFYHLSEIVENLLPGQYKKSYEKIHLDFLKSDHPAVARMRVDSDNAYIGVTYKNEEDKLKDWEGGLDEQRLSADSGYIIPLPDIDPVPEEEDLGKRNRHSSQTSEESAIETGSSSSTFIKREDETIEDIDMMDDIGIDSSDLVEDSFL
Sequence of off-target kinases (Homo sapiens, UniProt Q92918) (Q92918 whole entry): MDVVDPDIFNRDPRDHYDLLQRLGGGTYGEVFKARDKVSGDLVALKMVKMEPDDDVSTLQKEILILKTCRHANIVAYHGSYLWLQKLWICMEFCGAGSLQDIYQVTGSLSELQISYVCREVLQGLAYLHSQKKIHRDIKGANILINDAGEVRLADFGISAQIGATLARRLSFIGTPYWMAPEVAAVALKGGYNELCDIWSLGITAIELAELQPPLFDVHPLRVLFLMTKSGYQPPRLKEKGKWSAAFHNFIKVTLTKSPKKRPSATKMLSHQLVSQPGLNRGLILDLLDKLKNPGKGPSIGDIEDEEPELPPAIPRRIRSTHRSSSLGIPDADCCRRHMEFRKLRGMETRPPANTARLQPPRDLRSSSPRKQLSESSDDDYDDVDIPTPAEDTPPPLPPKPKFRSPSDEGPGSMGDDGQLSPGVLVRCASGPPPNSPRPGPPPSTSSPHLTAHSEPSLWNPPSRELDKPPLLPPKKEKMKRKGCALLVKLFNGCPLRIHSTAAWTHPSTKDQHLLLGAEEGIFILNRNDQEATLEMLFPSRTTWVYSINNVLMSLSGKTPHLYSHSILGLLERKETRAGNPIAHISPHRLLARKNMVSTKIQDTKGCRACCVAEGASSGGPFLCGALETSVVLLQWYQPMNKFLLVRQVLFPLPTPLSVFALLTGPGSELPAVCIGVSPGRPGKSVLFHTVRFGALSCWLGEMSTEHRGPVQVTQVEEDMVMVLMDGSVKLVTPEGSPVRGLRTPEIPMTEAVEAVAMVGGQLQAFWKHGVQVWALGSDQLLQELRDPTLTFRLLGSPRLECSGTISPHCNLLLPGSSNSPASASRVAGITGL
Sequence of off-target kinases (Homo sapiens, UniProt O43293) (O43293 whole entry): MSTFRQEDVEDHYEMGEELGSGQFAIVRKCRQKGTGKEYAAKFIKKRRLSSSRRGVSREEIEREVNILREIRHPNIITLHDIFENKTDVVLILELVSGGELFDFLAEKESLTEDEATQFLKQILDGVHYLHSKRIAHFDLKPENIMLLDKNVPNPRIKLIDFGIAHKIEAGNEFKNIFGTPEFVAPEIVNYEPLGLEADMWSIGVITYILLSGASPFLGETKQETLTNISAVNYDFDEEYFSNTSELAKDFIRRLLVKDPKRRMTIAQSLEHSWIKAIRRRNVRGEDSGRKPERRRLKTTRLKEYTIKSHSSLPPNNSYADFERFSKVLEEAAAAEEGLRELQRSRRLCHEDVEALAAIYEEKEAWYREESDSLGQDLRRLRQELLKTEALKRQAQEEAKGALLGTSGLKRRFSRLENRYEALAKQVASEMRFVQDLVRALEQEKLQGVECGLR

Structure (SMILES): N#Cc1cc(-c2ncnc(Nc3ccc(N4CCN(C5COC5)CC4)cc3)n2)ccc1OC1CCOCC1 [Compound 1, 5-(4-((4-(4-(oxetan-3-yl)piperazin-1-yl)phenyl)amino)-1,3,5-triazin-2-yl)-2-((tetrahydro-2H-pyran-4-yl)oxy)benzonitrile]
- inhibition ([1]; read-out: % Inhibition 1): 28%
- inhibition ([1]; read-out: % Inhibition 2): 26%
- inhibition ([1]; read-out: % Inhibition Avg): 27%
- inhibition ([2]; read-out: % Inhibition 1): 52%
- inhibition ([2]; read-out: % Inhibition 2): 49%
- inhibition ([2]; read-out: % Inhibition Avg): 51%
- inhibition ([3]; read-out: % Inhibition 1): 77%
- inhibition ([3]; read-out: % Inhibition 2): 73%
- inhibition ([3]; read-out: % Inhibition Avg): 75%
- inhibition ([4]; STK4 (MST1), ZLYTE, ATP Km app, read-out: % Inhibition Avg): 0%
- inhibition ([4]; read-out: % Inhibition 1): 0%
- inhibition ([4]; read-out: % Inhibition 2): 0%
- inhibition ([5]; AMPK (A1/B1/G2), LanthaScreen Binding, read-out: % Inhibition 1): 40%
- inhibition ([5]; AMPK (A1/B1/G2), LanthaScreen Binding, read-out: % Inhibition 2): 40%
- inhibition ([5]; AMPK (A1/B1/G2), LanthaScreen Binding, read-out: % Inhibition Avg): 40%
- inhibition ([5]; AMPK (A1/B1/G3), LanthaScreen Binding, read-out: % Inhibition 1): 37%
- inhibition ([5]; AMPK (A1/B1/G3), LanthaScreen Binding, read-out: % Inhibition 2): 42%
- inhibition ([5]; AMPK (A1/B1/G3), LanthaScreen Binding, read-out: % Inhibition Avg): 39%
- inhibition ([5]; AMPK (A1/B2/G1), LanthaScreen Binding, read-out: % Inhibition 1): 49%
- inhibition ([5]; AMPK (A1/B2/G1), LanthaScreen Binding, read-out: % Inhibition 2): 43%
- inhibition ([5]; AMPK (A1/B2/G1), LanthaScreen Binding, read-out: % Inhibition Avg): 46%
- inhibition ([5]; AMPK A1/B1/G1, ATP Km app, ZLYTE, read-out: % Inhibition 1): 58%
- inhibition ([5]; AMPK A1/B1/G1, ATP Km app, ZLYTE, read-out: % Inhibition 2): 53%
- inhibition ([5]; AMPK A1/B1/G1, ATP Km app, ZLYTE, read-out: % Inhibition Avg): 55%
- inhibition ([6]; read-out: % Inhibition 1): 25%
- inhibition ([6]; read-out: % Inhibition 2): 22%
- inhibition ([6]; read-out: % Inhibition Avg): 23%
- inhibition ([7]; read-out: % Inhibition 1): 59%
- inhibition ([7]; read-out: % Inhibition 2): 55%
- inhibition ([7]; read-out: % Inhibition Avg): 57%
- inhibition ([8]; read-out: % Inhibition 1): 10%
- inhibition ([8]; read-out: % Inhibition 2): -9%
- inhibition ([8]; read-out: % Inhibition Avg): 0%
